# Experimental data published in PMC11134387, “Cancer-Stem-Cell Phenotype-Guided Discovery of a Microbiota-Inspired Synthetic Compound Targeting NPM1 for Leukemia” (JACS Au, 2024).
# Experiments:
# [1] = In vivo pharmacokinetic study; parameters: species or system mouse; settings: single intraperitoneal administration, 25 mg/kg, up to 6 h
# Description: Based on the encouraging results obtained in ex vivo models of AML, we further assessed the therapeutic potential of the new NPM1 inhibitor in vivo. Prior to the evaluation of the compound in an animal model of AML, in vivo pharmacokinetic studies were addressed. Following a single intraperitoneal administration of UCM-13369 at a dose of 25 mg/kg, levels of 200–600 μg/L were detected in mouse peripheral blood up to 6 h (Figure 6A). Plasma protein binding of the compound in mouse serum was measured using an equilibrium dialysis assay, indicating a bound fraction of 83 ± 1%. Next, the efficacy of the compound was evaluated in immunodeficient mice after injection of OCI-AML3-ffLuc-GFP cells as an AML animal model.
# For the pharmacokinetic study of UCM-13369, after injecting 25 mg/kg dose of the compound, samples of blood were withdrawn at different times (30, 60, 120, 240, 360 min), and the presence of tested compound was analyzed by HPLC-MS. The area of the molecular peak allowed us to calculate the concentration of the compound present in mice serum at each time.
# MCF-7 = experiment: Cytotoxic effect in breast tumor cell line (MTT); settings: Homo sapiens, MCF7, read-out: Viability (%) MCF-7, @5 µM (footnote d)
# Description: The cytotoxic effect was determined in breast (MCF-7) and colon (HCT-116) tumor cell lines using MTT assays.
# Cells were seeded at 3 × 10^4 cells/mL in 96-well plates. The test compound was diluted in PBS. […] Viability was evaluated by MTT or WST-1 and dose/response curves were performed.
# [2] = Viability of non-tumor fibroblast cell line; format: cell-based; settings: human, IMR90 non-tumor fibroblasts; @5 µM
# Description: (§1) The test compound was diluted in PBS.
# (§2) Viability (%) tum orsphere form ation (%)
# IMR90 fibroblasts = experiment: Viability of non-tumor fibroblast cell line; format: cell-based; settings: IMR90 fibroblasts, 5 μM
# Description: as §1, §2
# MOLM13 (NPM1 WT) = experiment: Cell viability dose-response in AML cell line (NPM1 WT); format: cell-based; settings: Homo sapiens, MOLM-13; MOLM13, 48 h
# From the text: One of the most paradigmatic diseases with critical involvement of CSCs is AML. Among the AML stem cell population, CD34+/CD38- are the only ones capable of inducing leukemia in vivo.[27] […] We focused on proteins that disappeared completely after treatment with the compound and whose concentration could be quantified in untreated samples. According to this profile, 340 proteins, including targets related with stemness and cancer, were identified (see Supplementary Excel file). Among them, nucleophosmin 1 (NPM1) especially attracted our attention, as it is one of the most common mutated proteins in AML.[28] To support that the inhibitory capacity of UCM-13369 observed in CSC cells (see Table S1) is mediated by NPM1, the compound was tested on OCI-AML3 and MOLM13 cell lines, as in vitro AML models bearing mutant (NPM1 C+) and wild-type (WT) protein, respectively.
# as §1
# [3] = test system: primary CD34+ cells from AML patients; experiment: Flow cytometry CD34-PE/Annexin V-FITC of primary HSCs from AML patients; format: cell-based, human; settings: 5μM, representative sample
# Description: The inhibition of NPM1, especially NPM1 C+ pathway (as shown in Figure 4), by UCM-13369 correlates with the increase of apoptosis observed in treated primary CD34+ cells upon staining with Annexin V (Figure 5C).
# CFU-E and CD34+ primary cells with and without UCM-13369 treatment were analyzed. The following monoclonal antibodies were used: CD34-PE, Annexin V-FITC (BD Biosciences). The cells were incubated with antibodies in PBS on ice for 15 min in the dark. The analysis of CD34+ and Annexin V+ subpopulation was carried out in a flow cytometer FACSCalibur (Becton Dickinson, Citometría y Microscopía de Fluorescencia core facility, UCM) and the data were processed using FlowJo_V10 software.
# NPM1 = experiment: Western blot of NPM1 in MOLM13 cells; format: cell-based; settings: MOLM13, 10 µM
# Description: We next studied the impact of UCM-13369 in the genes and/or expression levels of NPM1 and NPM1 C+ pathway components (Figure 4A), including the positive regulation of c-Myc[34] and the negative regulation of FBXW7 and the pro-apoptotic CASP8.[35] […] The inhibition of NPM1 was also observed in MOLM13 cells expressing WT NPM1 (Figure S1B).
# 1. Figures S1 -S4and T ab les S1 , S2
# Figure S1. (A) Dose-response curve of UCM-13369 in MCF-7, HCT-116 and IMR90 […]
# (10 µM) in MOLM13 cells at 24 and 48 h. Densitometry values: reduction of 5% and […]
# between NSG mice injected with OCI-AML3 cells, with and without UCM-13369 treatment (50 mg/kg). (D) IHC analysis of a poptotic cells in a representative kidney sample from OC I-AML 3 xenograft mice treat ed with DMSO (vehicle, top) vs . UCM-13369 treated mice (50 mg/kg, bottom) mice: H&E ( left) and cleav ed caspase- 3 (right). […]
# Proteomic analysis. A supplementary table (Excel file) includes all the data of the proteomic analysis, showing all the proteins identified, not only those ablated in the treated population, but also those found with different expression levels in both populations under study, and even those that were not detected in the control population but were detected in the treated population. Follows the image of a Venn diagram showing the number of proteins detected in each of the pop ulations and the proteins that converg e […]
structure (smiles),measurement,setting,value
"COc1ccc(C2Cc3[nH]c4ccccc4c3C(CCNCC3CC3)C2N)cc1 (centres unmarked) [4b, 4-{2-[(Cyclopropylmethyl)amino]ethyl}-2-(4-methoxyphenyl)-2,3,4,9-tetrahydro-1H-carbazol-3-amine]",Levels in mouse peripheral blood,[1],200 to 600 ng/mL
same,viability at 5 µM,MCF-7,96%
same,"viability at 48 h, 5 µM",[2],100%
same,Toxicity in nontumor cells (in words),IMR90 fibroblasts,not toxic
same,IC50,MOLM13 (NPM1 WT),10.9 µM
same,CD34+/AnnexinV+,[3],43.09%
same,Densitometry values (NPM1): reduction,NPM1; 24 h,5%
same,Densitometry values (NPM1): reduction,NPM1; 48 h,44%
